According to patent US6355799B1, “Substituted benzene compounds, process for their preparation, and herbicidal and defoliant compositions containing them” (ISK Americas Incorporated, priority 1997, dated 2002):

Tests used:
Assay type in all cases: in vivo
[1] = test system: large crabgrass (Digitaria sanguinalis, DIGSA); assay: Post-emerge test, greenhouse herbicide activity screening; conditions: rating scale 0-100 (0 no damage, 100 complete death), 14 days after application
In short: (§1)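 Herbicidal damage is scored 0 (none) to 100 (complete plant death) two weeks after a simulated field spray. Rates span 15–1000 g ai/ha, delivered in acetone at 187 l/ha. For post-emergence treatments, plants have 2–3 leaves and the spray carries 0.25% v/v non-ionic surfactant.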

[2] = test system: velvetleaf (Abutilon theophrasti, ABUTH); assay: as above; conditions: rating scale 0-100 (0 no damage, 100 complete death), 14 days after application
In short: as §1

[3] = test system: common ragweed (Ambrosia artemisizfolia L., AMBEL); assay: as above; conditions: rating scale 0-100 (0 no damage, 100 complete death), 14 days after application
In short: as §1

[4] = test system: lambsquarters (Chenopodium album, CHEAL); assay: as above; conditions: rating scale 0-100 (0 no damage, 100 complete death), 14 days after application
In short: as §1

[5] = test system: barnyardgrass (Echinochloa crus-galli, ECHCG); assay: as above; conditions: rating scale 0-100 (0 no damage, 100 complete death), 14 days after application
In short: as §1

[6] = test system: redroot pigweed (Amaranthus retroflexus, AMARE); assay: as above; conditions: rating scale 0-100 (0 no damage, 100 complete death), 14 days after application
In short: as §1

[7] = test system: green foxtail (Setaria viridis, SETVI); assay: as above; conditions: rating scale 0-100 (0 no damage, 100 complete death), 14 days after application
In short: as §1

[8] = test system: ivyleaf morningglory (Ipomoea hederacea, IPOHE); assay: as above; conditions: rating scale 0-100 (0 no damage, 100 complete death), 14 days after application
In short: as §1

[9] = test system: johnsongrass (Sorghum halepense, SORHA); assay: as above; conditions: rating scale 0-100 (0 no damage, 100 complete death), 14 days after application
In short: as §1

[10] = test system: sicklepod (Cassia obtusifolia, CASOB); assay: as above; conditions: rating scale 0-100 (0 no damage, 100 complete death), 14 days after application
In short: as §1

[11] = test system: large crabgrass (Digitaria sanguinalis, DIGSA); assay: Pre-emerge test, greenhouse herbicide activity screening; conditions: rating scale 0-100, 14 days after application
In short: (§2)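 Sandy loam pots; pre-emerge: sown 1 d pre-spray, surface-watered after, then bottom-watered. Post-emerge: sown 8–21 d before, 2–3 leaf stage, + 0.25% v/v NIS, bottom-watered. Acetone, 187 l/ha track spray, 15–1000 g ai/ha. 0–100 injury score, day 14.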

[12] = test system: velvetleaf (Abutilon theophrasti, ABUTH); assay: as above; conditions: rating scale 0-100, 14 days after application
In short: as §2

[13] = test system: lambsquarters (Chenopodium album, CHEAL); assay: as above; conditions: rating scale 0-100, 14 days after application
In short: as §2

[14] = test system: barnyardgrass (Echinochloa crus-galli, ECHCG); assay: as above; conditions: rating scale 0-100, 14 days after application
In short: as §2

[15] = test system: green foxtail (Setaria viridis, SETVI); assay: as above; conditions: rating scale 0-100, 14 days after application
In short: as §2

[16] = test system: ivyleaf morningglory (Ipomoea hederacea, IPOHE); assay: as above; conditions: rating scale 0-100, 14 days after application
In short: as §2

[17] = test system: johnsongrass (Sorghum halepense, SORHA); assay: as above; conditions: rating scale 0-100, 14 days after application
In short: as §2

[18] = test system: sicklepod (Cassia obtusifolia, CASOB); assay: as above; conditions: rating scale 0-100, 14 days after application
In short: as §2

[19] = test system: upland rice (Oryza sp., var. Tebonnet, RICE); assay: Pre-emerge test, crop safety; conditions: rating scale 0-100, 14 days after application
In short: (§3)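 Fourteen days after spraying, crop and weed injury was graded visually from 0, no effect, to 100, every plant dead. Test substances were dissolved in acetone and applied at 15–1000 g ai/ha with a flat-fan nozzle. Application was either pre-emergence, one day after sowing, or post-emergence at the 2–3 leaf stage.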

[20] = test system: field corn (Zea mays L., var. Dekalb 535, CORN); assay: Pre-emerge test, crop safety; conditions: rating scale 0-100, 14 days after application
In short: as §3

[21] = test system: upland rice (Oryza sp., var. Tebonnet, RICE); assay: Post-emerge test, crop safety; conditions: rating scale 0-100 (0 no damage, 100 complete death), 14 days after application
In short: as §2

[22] = test system: field corn (Zea mays L., var. Dekalb 535, CORN); assay: Post-emerge test, crop safety; conditions: rating scale 0-100 (0 no damage, 100 complete death), 14 days after application
In short: as §2

[23] = test system: redroot pigweed (Amaranthus retroflexus, AMARE); assay: Pre-emerge test, greenhouse herbicide activity screening; conditions: rating scale 0-100, 14 days after application
In short: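 Plants grown in 10 cm pots of sandy loam mix received acetone-dissolved compounds through a moving flat-fan nozzle. Doses ranged from 15 to 1000 g ai/ha. Pre-emerge pots were seeded one day earlier, post-emerge pots 8–21 days earlier. Fourteen days on, each pot was graded 0–100 for damage.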

## COc1c(Cl)cc(F)c(-n2c(=O)cc(C(F)(F)F)n(C)c2=O)c1CC(Cl)C(=O)OCC(C)C (single isomer, unassigned) [14-15]
[1]; Rate 63 g ai/ha
  Post-emerge Herbicidal Activity, phytotoxicity rating DIGSA: 95
[1]; Rate 250 g ai/ha
  Post-emerge Herbicidal Activity, phytotoxicity rating DIGSA: 100
[2]; Rate 63 g ai/ha
  Post-emerge Herbicidal Activity, phytotoxicity rating ABUTH: 60
[2]; Rate 250 g ai/ha
  Post-emerge Herbicidal Activity, phytotoxicity rating ABUTH: 90
[3]; Rate 63 g ai/ha
  Post-emerge Herbicidal Activity, phytotoxicity rating AMBEL: 20
[3]; Rate 250 g ai/ha
  Post-emerge Herbicidal Activity, phytotoxicity rating AMBEL: 100
[4]; Rate 63 g ai/ha
  Post-emerge Herbicidal Activity, phytotoxicity rating CHEAL: 50
[4]; Rate 250 g ai/ha
  Post-emerge Herbicidal Activity, phytotoxicity rating CHEAL: 100
[5]; Rate 63 g ai/ha
  Post-emerge Herbicidal Activity, phytotoxicity rating ECHCG: 100
[5]; Rate 250 g ai/ha
  Post-emerge Herbicidal Activity, phytotoxicity rating ECHCG: 100
[6]; Rate 63 g ai/ha
  Post-emerge Herbicidal Activity, phytotoxicity rating AMARE: 100
[6]; Rate 250 g ai/ha
  Post-emerge Herbicidal Activity, phytotoxicity rating AMARE: 100
[7]; Rate 63 g ai/ha
  Post-emerge Herbicidal Activity, phytotoxicity rating SETVI: 70
[7]; Rate 250 g ai/ha
  Post-emerge Herbicidal Activity, phytotoxicity rating SETVI: 80
[8]; Rate 63 g ai/ha
  Post-emerge Herbicidal Activity, phytotoxicity rating IPOHE: 50
[8]; Rate 250 g ai/ha
  Post-emerge Herbicidal Activity, phytotoxicity rating IPOHE: 90
[9]; Rate 63 g ai/ha
  Post-emerge Herbicidal Activity, phytotoxicity rating SORHA: 50
[9]; Rate 250 g ai/ha
  Post-emerge Herbicidal Activity, phytotoxicity rating SORHA: 40
[10]; Rate 63 g ai/ha
  Post-emerge Herbicidal Activity, phytotoxicity rating CASOB: 0
[10]; Rate 250 g ai/ha
  Post-emerge Herbicidal Activity, phytotoxicity rating CASOB: 50
[11]; 63 g ai/ha
  Pre-emerge herbicidal activity, phytotoxicity rating DIGSA: 70
[11]; 250 g ai/ha
  Pre-emerge herbicidal activity, phytotoxicity rating DIGSA: 100
[12]; 63 g ai/ha
  Pre-emerge herbicidal activity, phytotoxicity rating ABUTH: 50
[12]; 250 g ai/ha
  Pre-emerge herbicidal activity, phytotoxicity rating ABUTH: 100
[13]; 63 g ai/ha
  Pre-emerge herbicidal activity, phytotoxicity rating CHEAL: 20
[13]; 250 g ai/ha
  Pre-emerge herbicidal activity, phytotoxicity rating CHEAL: 95
[14]; 63 g ai/ha
  Pre-emerge herbicidal activity, phytotoxicity rating ECHCG: 0
[14]; 250 g ai/ha
  Pre-emerge herbicidal activity, phytotoxicity rating ECHCG: 80
[15]; 63 g ai/ha
  Pre-emerge herbicidal activity, phytotoxicity rating SETVI: 0
[15]; 250 g ai/ha
  Pre-emerge herbicidal activity, phytotoxicity rating SETVI: 30
[16]; 63 g ai/ha
  Pre-emerge herbicidal activity, phytotoxicity rating IPOHE: 0
[16]; 250 g ai/ha
  Pre-emerge herbicidal activity, phytotoxicity rating IPOHE: 20
[17]; 63 g ai/ha
  Pre-emerge herbicidal activity, phytotoxicity rating SORHA: 0
[17]; 250 g ai/ha
  Pre-emerge herbicidal activity, phytotoxicity rating SORHA: 0
[18]; 63 g ai/ha
  Pre-emerge herbicidal activity, phytotoxicity rating CASOB: 0
[18]; 250 g ai/ha
  Pre-emerge herbicidal activity, phytotoxicity rating CASOB: 40
[19]; 63 g ai/ha
  Pre-emerge phytotoxicity rating, crop damage RICE: 0
[19]; 250 g ai/ha
  Pre-emerge phytotoxicity rating, crop damage RICE: 0
[20]; 63 g ai/ha
  Pre-emerge phytotoxicity rating, crop damage CORN: 0
[20]; 250 g ai/ha
  Pre-emerge phytotoxicity rating, crop damage CORN: 0
[21]; Rate 63 g ai/ha
  Post-emerge phytotoxicity rating RICE (crop damage): 0
[21]; Rate 250 g ai/ha
  Post-emerge phytotoxicity rating RICE (crop damage): 0
[22]; Rate 63 g ai/ha
  Post-emerge phytotoxicity rating CORN (crop damage): 20
[22]; Rate 250 g ai/ha
  Post-emerge phytotoxicity rating CORN (crop damage): 60
[23]; 63 g ai/ha
  Pre-emerge herbicidal activity, phytotoxicity rating AMARE: 100
[23]; 250 g ai/ha
  Pre-emerge herbicidal activity, phytotoxicity rating AMARE: 100
